Laboratory results taken from patent publication US20200179245A1, “HIGH EFFICIENCY SUNSCREEN COMPOSITION” (Deckner Consulting Services, LLC, priority 2015, published 2020).
Where two headings read alike, the source gives them in different places.

Experiments:
[1] = In vitro open chamber Franz diffusion cell penetration test; format: in vitro ADME; conditions: Strat-M membrane, 37° C.
Method: The Test sample was Barsoleil OMC-60 with a purity of 61.95%. The control sample was Octyl Methoxycinnamate with a purity of 100%. The samples were applied to a Strat-M membrane for testing using 5 skin preparations. A 6-cell semiautomatic Franz cell setup was used for all diffusion experiments. (Franz cell Diffusion is a standard in vitro method used for penetration). Circulating water baths were set to 37° C.±0.5° C. Strat-M synthetic membrane was used in place of cadaver skin. The Strat-M® membrane was placed between the donor and receptor compartments of the Franz cells. The available open area between donor and receptor compartments measured 0.635 cm2. The compartments were clamped together, ensuring that the shiny side of the membrane was facing the donor compartment. 1 mL of the test and control samples were used and placed in the donor chamber. The receptor compartment was filled with 0.9% saline:methanol (50:50) buffer. When the receptor solution reached 37° C., the sample was added to the donor compartment. An aliquot of each sample was removed from the receptor compartment at times T=0, 2, 4, 6 and 8 hours.
The dose of the receptor phase was analyzed by HPLC, and the amount of release per unit area (μg/cm2) was plotted against the square of time and the slope was the transdermal release rate. (See FIG. 3, control sample 20, test sample 30).

[2] = human skin, cited from earlier work

CCCCC(CC)COC(=O)C=Cc1ccc(OC)cc1 (stereo not shown) [OMC, Octyl Methoxycinnamate]
Cumulative C ([1]; penetration time 0 hrs): 0 μg/cm^2
Cumulative C ([1]; penetration time 2 hrs): 16.7 μg/cm^2
Cumulative C ([1]; penetration time 4 hrs): 55.2 μg/cm^2
Cumulative C ([1]; penetration time 6 hrs): 96.5 μg/cm^2
Cumulative C ([1]; penetration time 8 hrs): 144.9 μg/cm^2

CCCCC(CC)COC(=O)/C=C/c1ccc(OC)cc1 (stereo not shown) [OMC-free]
in vitro skin penetration rate / skin accumulation ([2]; oil in water emulsion): 127.8 μg/cm^2
in vitro skin penetration rate / skin accumulation ([2]; water in oil emulsion): 172.1±12.9 μg/cm^2
